Data on one molecule can be found in US12644142B2, “Sugar composition containing cyclic tetrasaccharide, use thereof, and production method therefor” (NAGASE VIITA CO., LTD., priority 2019, dated 2026).

Data set [1] in a line: Preliminary evaluation of digestion and absorption after oral ingestion. As to conditions: orally ingested into a human body. In kind it is in vivo.
The conditions of data set [2]: purity of 98% by mass, aqueous solution with a solid concentration of 50% by mass; cited from earlier work.

As for `OC[C@H]1O[C@@H]2OC[C@H]3O[C@H](O[C@@H]4[C@@H](O)[C@@H](OC[C@H]5O[C@H](O[C@H]([C@H]2O)[C@@H]1O)[C@H](O)[C@@H](O)[C@@H]5O)O[C@H](CO)[C@H]4O)[C@H](O)[C@@H](O)[C@@H]3O` [cyclic tetrasaccharide, cyclo{→6)-α-D-glucopyranosyl-(1→3)-α-D-glucopyranosyl-(1→6)-α-D-glucopyranosyl-(1→3)-α-D-glucopyranosyl-(1→}], the “digestion and absorption after oral ingestion” value in data set [1] is recorded as “reaches the large intestine without being digested or absorbed”. The precipitation of crystals result in data set [2] was “easily causes precipitation of crystals”.
